Results as given in patent US8674085B2, “2′-branched nucleosides and Flaviviridae mutation” (priority 2002, dated 2014).

Legend:
HCV = conditions: ribavirin alone; cited from earlier work
BVDV strain I-NADL = experiment: BVDV virus yield reduction assay; assay type: cell-based, bovine viral diarrhea virus; conditions: cp
Method: To conduct the virus focus assay, MDBK cells were seeded onto 6-well plates containing 2×10^5 cells per well and grown at 37° C./5% CO2 for at least 5 hours before use. The test samples (culture supernatants combined with cell monolayers) were frozen/thawed twice, serially diluted by 10-fold in medium, and used to inoculate test cells in 6-well plates at 0.2 mL per well. The inoculum was removed after 1 hour of adsorption, and the cells were overlaid with 3 mL of 0.5% agarose in complete growth medium (1× DMEM (Cellgro), supplemented with 8% horse serum, penicillin, streptomycin, L-glutamine, sodium pyruvate, and 25 mM HEPES). After 3 days of incubation at 37° C./5% CO2, the plates were fixed for 1 hour with 3 mL of 7.4% formaldehyde in PBS, and washed with PBS. The cell monolayers were permeabilized with 1 mL of PBS-0.25% Triton X-100 per well for 10 minutes, and incubated with 0.5 mL of goat anti-BVDV antiserum (VMDR, Inc.; diluted 1:1000 in PBS-0.25% Triton X-100) for 1 hour. The antiserum was then removed, and cell monolayers were washed with PBS (twice for 15 min) and incubated with 0.5 mL of peroxidase-conjugated donkey anti-goat antibody (diluted 1:1000 in PBS-0.25% Triton X-100) for another 1 hour. After the antibody was removed, the cell monolayers were washed with PBS (twice for 15 min), and incubated with 0.5 mL of diaminobenzidine (DAB) peroxidase substrate solution (Vector Laboratories) at room temperature until virus foci become visible (approximately 15 minutes). All incubations were carried out with rocking. The staining was stopped by washing with water and the plates were allowed to air dry. Virus titers were calculated in FFU/mL, using the following equation: TFFU/mL=N×5×D; where T is a virus titer in FFU/mL; N is a number of foci per well; and D is a dilution factor for the corresponding virus sample. […]
(§1) To conduct the virus yield reduction assay, MDBK cells were seeded onto 24-well plates (1×10^5 cells per well) and grown at 37° C./5% CO2 overnight. […] The virus titer in the cell culture was quantified by focus assay as described above. […]

[1] = system: BVDV (strain I-N-dIns) in persistently infected MDBK cells; experiment: Passaging of persistently infected MDBK cells with 8 μM β-D-2′-CH3-riboC (isolation of resistant BVDV); assay type: cell-based, bovine viral diarrhea virus
Method: (§2) Persistent BVDV infection was established in MDBK cell line (ATCC, Manassas, Va., Catalog #: CCL-22) by in vitro infection of naive cells with a noncytophatic (ncp) BVDV (strain I-N-dIns; Dr. R. Donis, U. of Nebraska, Lincoln, Nebr.). The multiplicity of infection (MOI) was 0.01. Cells were passaged twice per week (splitting ratio 1:15) until the stable high-level of infection (10^6-10^7 focus forming units (FFU) per mL) was achieved, as was determined by a focus assay. Next, the persistently infected cells were grown in 6-well culture plates with 8 μM or without β-D-2′-CH3-riboC (Idenix Pharmaceuticals). Cell cultures were passaged every three to four days by splitting with a ratio of 1:15 to 1:20. After eight passages, cell cultures grown in the presence of β-D-2′-CH3-riboC were expanded to T-75 culture flask, freeze/thawed twice, and used as a virus stock of β-D-2′-CH3-riboC-resistant BVDV for further characterization. The virus titers in cell cultures were monitored at the end of each passage by the virus focus assay.
To conduct the virus focus assay, MDBK cells were seeded onto 6-well plates containing 2×10^5 cells per well and grown at 37° C./5% CO2 for at least 5 hours before use. The test samples (culture supernatants combined with cell monolayers) were frozen/thawed twice, serially diluted by 10-fold in medium, and used to inoculate test cells in 6-well plates at 0.2 mL per well. The inoculum was removed after 1 hour of adsorption, and the cells were overlaid with 3 mL of 0.5% agarose in complete growth medium (1× DMEM (Cellgro), supplemented with 8% horse serum, penicillin, streptomycin, L-glutamine, sodium pyruvate, and 25 mM HEPES). After 3 days of incubation at 37° C./5% CO2, the plates were fixed for 1 hour with 3 mL of 7.4% formaldehyde in PBS, and washed with PBS. […] Virus titers were calculated in FFU/mL, using the following equation: TFFU/mL=N×5×D; where T is a virus titer in FFU/mL; N is a number of foci per well; and D is a dilution factor for the corresponding virus sample. […]

[2] = system: BVDV (strain I-N-dIns) in persistently infected MDBK cells; experiment: Single or double treatment of persistently infected MDBK cells, virus titers by focus assay; assay type: cell-based, bovine viral diarrhea virus; conditions: for log value of the BVDV titer: 0 IU/mL Interferon alpha-2b; for reduction of viral titers: single treatment, 7 days
Method: as §2, with “After eight passages, cell cultures grown in the presence of β-D-2′-CH3-riboC were expanded to T-75 culture flask, freeze/thawed twice, and used as a virus stock of β-D-2′-CH3-riboC-resistant BVDV for further characterization.” left out
(§3) To conduct the virus focus assay, MDBK cells were seeded onto 6-well plates containing 2×10^5 cells per well and grown at 37° C./5% CO2 for at least 5 hours before use. The test samples (culture supernatants combined with cell monolayers) were frozen/thawed twice, serially diluted by 10-fold in medium, and used to inoculate test cells in 6-well plates at 0.2 mL per well. The inoculum was removed after 1 hour of adsorption, and the cells were overlaid with 3 mL of 0.5% agarose in complete growth medium (1× DMEM (Cellgro), supplemented with 8% horse serum, penicillin, streptomycin, L-glutamine, sodium pyruvate, and 25 mM HEPES). After 3 days of incubation at 37° C./5% CO2, the plates were fixed for 1 hour with 3 mL of 7.4% formaldehyde in PBS, and washed with PBS. The cell monolayers were permeabilized with 1 mL of PBS-0.25% Triton X-100 per well for 10 minutes, and incubated with 0.5 mL of goat anti-BVDV antiserum (VMDR, Inc.; diluted 1:1000 in PBS-0.25% Triton X-100) for 1 hour. The antiserum was then removed, and cell monolayers were washed with PBS (twice for 15 min) and incubated with 0.5 mL of peroxidase-conjugated donkey anti-goat antibody (diluted 1:1000 in PBS-0.25% Triton X-100) for another 1 hour. After the antibody was removed, the cell monolayers were washed with PBS (twice for 15 min), and incubated with 0.5 mL of diaminobenzidine (DAB) peroxidase substrate solution (Vector Laboratories) at room temperature until virus foci become visible (approximately 15 minutes). All incubations were carried out with rocking. The staining was stopped by washing with water and the plates were allowed to air dry. Virus titers were calculated in FFU/mL, using the following equation: TFFU/mL=N×5×D; where T is a virus titer in FFU/mL; N is a number of foci per well; and D is a dilution factor for the corresponding virus sample.
The effect of Intron A, alone or in combination with β-D-2′-CH3-riboC, on the wild type BVDV was further studied in the persistently infected MDBK cells. In one experimental setting, the virus titers were determined after 7 days (two passages) of single or double treatment with several inhibitor concentrations.

[3] = system: BVDV I-N-dIns β-D-2′-CH3-riboC-R (β-D-2′-CH3-riboC-resistant BVDV); experiment: BVDV virus yield reduction assay in de novo-infected MDBK cells; assay type: cell-based, bovine viral diarrhea virus
Method: as §3
To conduct the virus yield reduction assay, MDBK cells were seeded onto 24-well plates (1×10^5 cells per well) and grown at 37° C./5% CO2 overnight. Cells were infected with BVDV at a multiplicity of infection of 0.1. After 1-hour adsorption, the inoculum was removed, and cells were washed with PBS and then overlaid with 1 mL of fresh growth medium, containing serial 2-fold dilutions of the test compound (0-32 μM for β-D-2′-CH3-riboC and 0-800 IU/mL for Intron®A). After incubation at 37° C./5% CO2 for 48 hours, the plates were frozen/thawed at −70° C. twice to lyse the cell cultures. The virus titer in the cell culture was quantified by focus assay as described above. […] The EC50, EC90 and EC4-log values were derived by curve fitting using XLFit software.

[4] = system: BVDV strain I-N-dIns (wild type); experiment: microbe, parasite or virus in culture; assay type: cell-based, bovine viral diarrhea virus
Method: as §3, §1

[5] = Bovine viral diarrhea virus isolates and strains
[6] = Bovine viral diarrhea virus isolates and strains, MDBK, BVDV strain I-N-dIns β-D-2′-CH3-riboC-R, ncp, 48 hours

NC(=O)c1ncn([C@@H]2O[C@H](CO)[C@@H](O)[C@H]2O)n1 [Ribavirin, 1-β-D-ribofuranosyl-1-1,2,4-triazole-3-carboxamide]
serum amino transferase levels reduced to normal, share of patients (HCV): 40%

CC1(O)C(O)[C@@H](CO)O[C@H]1n1ccc(N)nc1=O (stereo partly drawn) [β-D-2′-CH3-riboC]
EC50 (BVDV strain I-NADL; [5]): 680 ± 80 nM | EC90 (BVDV strain I-NADL; [5]): 1730 ± 110 nM | EC4 log (BVDV strain I-NADL): 8.22 ± 0.05 μM | virus titer plateau after reappearance of virus ([1]; additional passaging in the presence of the inhibitor (virus reappeared at passage 3 to 5)): 10^5 FFU/mL | virus detection in culture ([1]; after two passages): no longer detectable | difference in virus titers versus untreated culture ([1]; observed even after 28 days of treatment): ~10 fold | log value of the BVDV titer ([2]; 2 μM β-D-2′-CH3-riboC, 7 days (two passages)): 5.10 log | log value of the BVDV titer ([2]; 4 μM β-D-2′-CH3-riboC, 7 days (two passages)): 4.55 log | reduction of virus titer ([2]; 8 μM β-D-2′-CH3-riboC alone, 7 days (two passages)): 6.2 logs | log value of the BVDV titer ([2]; 8 μM β-D-2′-CH3-riboC, 7 days (two passages)): 0.40 log | reduction of viral titers ([2]; 2 μM β-D-2′-CH3-riboC): 1.61 logs | reduction of viral titers ([2]; 4 μM β-D-2′-CH3-riboC): 2.06 logs | EC4 log ([3]; BVDV strain I-N-dIns β-D-2′-CH3-riboC-R, ncp, 48 hours): >32 μM | EC50 [3, 6]: > 32000 nM | EC90 [3, 6]: > 32000 nM | fold more resistant to the inhibitor than the wild type virus ([3]; based on the EC50 values of the virus yield reduction assay): at least 54 fold | effect on the resistant virus yield ([3]; highest concentration tested (32 μM)): no effect | EC4 log ([4]; BVDV strain I-N-dIns, ncp, concentration reducing viral titer by 99.99%, 48 hours): 7.14±1.26 μM | EC50 ([4]; Bovine viral diarrhea virus isolates and strains, MDBK, BVDV strain I-N-dIns, ncp, concentration reducing viral titer by 50%, 48 hours): 590 ± 120 nM | virus titers ([4]; at 16 μM, wild type virus, below the detection limit): < 10 FFU/mL
